Test results: patent US10501479B2, “Benzenesulfonyl-asymmetric ureas and medical uses thereof” (HELSINN HEALTHCARE SA, priority 2016, dated 2019)
pEC50, pIC50: −log10 of the molar value.

What was measured:
Format in all cases: cell-based
[1] = target: T1, recombinant human ghrelin receptor (HEK293/GRLN) (Homo sapiens, UniProt Q92847); test: Ghrelin inverse agonist potency (EC50) with IP-1 (IP-One HTRF) assay; details: IP-1 assay, HEK293/GRLN; read-out: Activity EC50 (ghrelin inverse agonist potency)
T1 construct: expressed in transfected cells
Summary of the method: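 HEK293/GRLN cells were seeded 18-22 hours before the test, then exposed to compound in stimulation buffer for 1 hour at 37° C, 5% CO2. IP-1 was detected by IP-One HTRF (IP1-d2 plus Tb-cryptate, 1 hour RT), reading 620 and 665 nm; the inverse agonist EC50 was derived from this.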

[2] = target: T2, GHSR-1a (HEK293/GHSR1a cell line) (Homo sapiens, UniProt Q92847); test: Ghrelin agonist potency (EC50) with calcium FLIPR assay; details: HEK293/GHSR1a, read-out: Activity EC50/EMax: EC50 (ghrelin agonist potency)
T2 construct: expressed in transfected cells; host or cells: HEK293/GHSR1a cell line
Procedure: Evaluation of Ghrelin Agonist (EC50) and Antagonist Potency (IC50) with Calcium FLIPR Assay:
The intracellular calcium assay was carried out in a 384-well format FLIPR™ (Molecular Device) HEK293/GHSR1a cell line. Cells were seeded 24 hr prior to the experiments at an optimal density per well. Preincubation with selected calcium dye lasted for 30-60 min at room temperature or 37° C. Test compounds, dissolved in DMSO, were added at the appropriate time and incubated for 15 min followed by the addition of ghrelin with FlexStation or FLIPR. Relative fluorescence was monitored by the FLIPR™ Molecular Device. EC50 and IC50 values were estimated from dose-response data using GraphPad Prism software. To check for GHSR-1a agonism, the compound was added at t=20 sec. and the calcium response was followed for 2 minutes. To check for GHSR-1a antagonism, the compound and Ghrelin (10 nM) were added to the cells at t=20 sec. and the calcium response was measured for 2 minutes. The potency of the antagonist was calculated by its ability to reduce the ghrelin response. Dose-response curves were made for relevant antagonists.

[3] = target: T2, GHSR-1a (HEK293/GHSR1a cell line); test: Ghrelin antagonist potency (IC50) with calcium FLIPR assay, ghrelin 10 nM; details: HEK293/GHSR1a, ghrelin 10 nM, read-out: Activity IC50 (ghrelin antagonist potency)
Summary of the method: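 Cells seeded 24 h before the run were loaded with calcium dye for 30-60 min at room temperature or 37° C. For agonism, compound was added at t=20 sec and the calcium signal followed for 2 minutes. For antagonism, compound plus ghrelin (10 nM) went on at t=20 sec, and IC50 reflected the drop in ghrelin response.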

T1 sequence (Q92847 whole entry): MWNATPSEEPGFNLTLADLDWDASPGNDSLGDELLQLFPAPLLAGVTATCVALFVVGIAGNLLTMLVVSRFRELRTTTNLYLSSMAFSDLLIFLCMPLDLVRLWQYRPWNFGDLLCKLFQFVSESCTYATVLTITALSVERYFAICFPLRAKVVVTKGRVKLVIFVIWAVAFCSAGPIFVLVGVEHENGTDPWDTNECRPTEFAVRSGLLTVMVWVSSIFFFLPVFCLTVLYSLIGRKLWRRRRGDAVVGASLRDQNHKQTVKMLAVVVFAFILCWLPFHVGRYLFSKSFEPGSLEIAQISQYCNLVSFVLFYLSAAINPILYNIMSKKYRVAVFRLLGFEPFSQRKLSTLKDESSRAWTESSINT
T2 sequence (Q92847 whole entry): as above

With CN1Cc2ccc(CS(=O)(=O)c3ccc(NC(=O)N[C@@H]4CCCc5ccccc54)cc3)cc2C1 [H1336, (R)-1-(4-(((2-methylisoindolin-5-yl)methyl)sulfonyl)phenyl)-3-(1,2,3,4-tetrahydronaphthalen-1-yl)urea] the pEC50 [1] was 6.58, the pEC50 [2] was under 4.52 and the pIC50 [3] was 6.42.
CC(NC(=O)Nc1ccc(S(=O)(=O)Cc2ccc3c(c2)CN(CC#N)C3)cc1)c1ccccc1 (stereo not drawn) [H1339, 1-(4-(((2-(cyanomethyl)isoindolin-5-yl)methyl)sulfonyl)phenyl)-3-(1-phenylethyl)urea] showed a pEC50 [1] of 6.75, a pEC50 [2] of under 4.52 and a pIC50 [3] of 6.51.
In the case of CC(NC(=O)Nc1ccc(S(=O)(=O)Cc2ccc3c(c2)CN(CC2CCCO2)C3)cc1)c1ccccc1 (stereo not drawn) [H1341, 1-(1-phenylethyl)-3-(4-(((2-((tetrahydrofuran-2-yl)methyl)isoindolin-5-yl)methyl)sulfonyl)phenyl)urea], the pEC50 [1] was 7.68, the pEC50 [2] was under 4.52 and the pIC50 [3] was 7.16.
C[C@@H](NC(=O)Nc1ccc(S(=O)(=O)Cc2cc3c(s2)CN(C)C3)cc1)c1ccccc1 [H1348, (R)-1-(4-(((5-methyl-5,6-dihydro-4H-thieno[2,3-c]pyrrol-2-yl)methyl)sulfonyl)phenyl)-3-(1-phenylethyl)urea] showed a pEC50 [1] of 7.70, a pEC50 [2] of under 4.52 and a pIC50 [3] of 7.19.
CN1CCc2cc(CS(=O)(=O)c3ccc(NC(=O)NCc4cccc(Cl)c4Cl)cc3)ccc2C1 [H1349, 1-(2,3-dichlorobenzyl)-3-(4-(((2-methyl-1,2,3,4-tetrahydroisoquinolin-6-yl)methyl)sulfonyl)phenyl)urea] showed a pEC50 [1] of 7.54, a pEC50 [2] of under 4.52 and a pIC50 [3] of 7.82.
CC(NC(=O)Nc1ccc(S(=O)(=O)Cc2ccc3c(c2)C[N+](C)([O-])C3)cc1)c1ccccc1 (stereo not drawn) [H1350, 2-methyl-5-(((4-(3-(1-phenylethyl)ureido)phenyl)sulfonyl)methyl)isoindoline 2-oxide] gave a pEC50 [1] of 5.13, a pEC50 [2] of under 4.52 and a pIC50 [3] of 4.74.
C[C@@H](NC(=O)Nc1ccc(S(=O)(=O)Cc2csc3c2CN(C)C3)cc1)c1ccccc1 [H1351, (R)-1-(4-(((5-methyl-5,6-dihydro-4H-thieno[2,3-c]pyrrol-3-yl)methyl)sulfonyl)phenyl)-3-(1-phenylethyl)urea] was tested, and the pEC50 [1] was 5.16, the pEC50 [2] was under 4.52 and the pIC50 [3] was 5.46.
C[C@H](NC(=O)Nc1ccc(S(=O)(=O)Nc2ccc3c(c2)CCN(C)C3)cc1)c1cccc(Cl)c1Cl [H1352, (S)-4-(3-(1-(2,3-dichlorophenyl)ethyl)ureido)-N-(2-methyl-1,2,3,4-tetrahydroisoquinolin-6-yl)benzenesulfonamide] gave a pEC50 [1] of 8.11, a pEC50 [2] of under 4.52 and a pIC50 [3] of 8.34.
Compound CC(=O)N1CC(NC(=O)Nc2ccc(S(=O)(=O)Cc3ccc4c(c3)CNC4)cc2)c2ccccc21 (stereo not drawn) [H1353, 1-(1-acetylindolin-3-yl)-3-(4-((isoindolin-5-ylmethyl)sulfonyl)phenyl)urea] has a pEC50 [1] of 5.08, a pEC50 [2] of under 4.52 and a pIC50 [3] of 5.29.
CC(=O)N1CC(NC(=O)Nc2ccc(S(=O)(=O)Cc3ccc4c(c3)CN(C)C4)cc2)c2ccccc21 (stereo not drawn) [H1354, 1-(1-acetylindolin-3-yl)-3-(4-(((2-methylisoindolin-5-yl)methyl)sulfonyl)phenyl)urea] gave a pEC50 [1] of 5.06, a pEC50 [2] of under 4.52 and a pIC50 [3] of 5.05.
With C[C@@H](NC(=O)Nc1ccc(S(=O)(=O)Cc2ccc3c(c2)CN(C)C3(C)C)cc1)c1ccccc1 [H1357, (R)-1-(1-phenylethyl)-3-(4-(((1,1,2-trimethylisoindolin-5-yl)methyl)sulfonyl)phenyl)urea] the pEC50 [1] was 7.44, the pEC50 [2] was under 4.52 and the pIC50 [3] was 7.24.
With CN1Cc2ccc(CS(=O)(=O)c3ccc(NC(=O)NC4CNc5ccccc54)cc3)cc2C1 (stereo not drawn) [H1358, 1-(indolin-3-yl)-3-(4-(((2-methylisoindolin-5-yl)methyl)sulfonyl)phenyl)urea] the pEC50 [1] was 5.74, the pEC50 [2] was under 4.52 and the pIC50 [3] was 5.73.
For CC(NC(=O)Nc1ccc(S(=O)(=O)Cc2cc3c(cc2F)CN(C)CC3)cc1)c1cccc(Cl)c1Cl (stereo not drawn) [H1366, 1-(1-(2,3-dichlorophenyl)ethyl)-3-(4-(((7-fluoro-2-methyl-1,2,3,4-tetrahydroisoquinolin-6-yl)methyl)sulfonyl)phenyl)urea], the pEC50 [1] was 8.60, the pEC50 [2] was under 4.52 and the pIC50 [3] was 7.67.
With CC(NC(=O)Nc1ccc(S(=O)(=O)Cc2ccc3c(c2F)CCN(C)C3)cc1)c1cccc(Cl)c1Cl (stereo not drawn) [H1367, 1-(1-(2,3-dichlorophenyl)ethyl)-3-(4-(((5-fluoro-2-methyl-1,2,3,4-tetrahydroisoquinolin-6-yl)methyl)sulfonyl)phenyl)urea] the pEC50 [1] was 8.48, the pEC50 [2] was under 4.52 and the pIC50 [3] was 7.67.
COc1cc2c(cc1CS(=O)(=O)c1ccc(NC(=O)NC(C)c3cccc(Cl)c3Cl)cc1)CCN(C)C2 (stereo not drawn) [H1368, 1-(1-(2,3-dichlorophenyl)ethyl)-3-(4-(((7-methoxy-2-methyl-1,2,3,4-tetrahydroisoquinolin-6-yl)methyl)sulfonyl)phenyl)urea] was tested, and the pEC50 [1] was 8.55, the pEC50 [2] was under 4.52 and the pIC50 [3] was 7.69.
With COc1c(CS(=O)(=O)c2ccc(NC(=O)NC(C)c3cccc(Cl)c3Cl)cc2)ccc2c1CCN(C)C2 (stereo not drawn) [H1369, 1-(1-(2,3-dichlorophenyl)ethyl)-3-(4-(((5-methoxy-2-methyl-1,2,3,4-tetrahydroisoquinolin-6-yl)methyl)sulfonyl)phenyl)urea] the pEC50 [1] was 8.96, the pEC50 [2] was under 4.52 and the pIC50 [3] was 8.44.
Compound CC(NC(=O)Nc1ccc(S(=O)(=O)CC2CCC(NCC3CC3)CC2)cc1)c1cccc(Cl)c1Cl (stereo not drawn) [H1371, 1-(4-(((4-((cyclopropylmethyl)amino)cyclohexyl)methyl)sulfonyl)phenyl)-3-(1-(2,3-dichlorophenyl)ethyl)urea] has a pEC50 [1] of 6.64, a pEC50 [2] of under 4.52 and a pIC50 [3] of 5.61.
Compound CCN(CC)C1CCC(CS(=O)(=O)c2ccc(NC(=O)NC(C)c3cccc(Cl)c3Cl)cc2)CC1 (stereo not drawn) [H1372, 1-(1-(2,3-dichlorophenyl)ethyl)-3-(4-(((4-(diethylamino)cyclohexyl)methyl)sulfonyl)phenyl)urea] has a pEC50 [1] of 6.03, a pEC50 [2] of under 4.52 and a pIC50 [3] of 4.74.
For CC(NC(=O)Nc1ccc(S(=O)(=O)CC2CCCN(C(C)C)C2)cc1)c1cccc(Cl)c1Cl (stereo not drawn) [H1376, 1-(1-(2,3-dichlorophenyl)ethyl)-3-(4-(((1-isopropylpiperidin-3-yl)methyl)sulfonyl)phenyl)urea], the pEC50 [1] was 6.20, the pEC50 [2] was under 4.52 and the pIC50 [3] was 5.16.
With CC(NC(=O)N(C)c1ccc(S(=O)(=O)Cc2ccc3c(c2)CN(C)C3)cc1)c1ccccc1 (stereo not drawn) [H1377, 1-methyl-1-(4-(((2-methylisoindolin-5-yl)methyl)sulfonyl)phenyl)-3-(1-phenylethyl)urea] the pEC50 [1] was 6.42, the pEC50 [2] was under 4.52 and the pIC50 [3] was 5.26.
With COc1cc2c(cc1CS(=O)(=O)c1ccc(NC(=O)NC(C)c3cccc(Cl)c3Cl)cc1)CCNC2 (stereo not drawn) [H1392, 1-(1-(2,3-dichlorophenyl)ethyl)-3-(4-(((7-methoxy-1,2,3,4-tetrahydroisoquinolin-6-yl)methyl)sulfonyl)phenyl)urea] the pEC50 [1] was 7.28, the pEC50 [2] was under 4.52 and the pIC50 [3] was 7.01.
CC(NC(=O)Nc1ccc(S(=O)(=O)Cc2cc3c(c(C(F)(F)F)c2)CNCC3)cc1F)c1cccc(Cl)c1Cl (stereo not drawn) [H1400, 1-(1-(2,3-dichlorophenyl)ethyl)-3-(2-fluoro-4-(((8-(trifluoromethyl)-1,2,3,4-tetrahydroisoquinolin-6-yl)methyl)sulfonyl)phenyl)urea] was tested, and the pEC50 [1] was 7.81, the pEC50 [2] was under 4.52 and the pIC50 [3] was 7.15.
In the case of CC(NC(=O)Nc1ccc(S(=O)(=O)Cc2cc(Cl)c3c(c2)CNC3)cc1)c1ccccc1 (stereo not drawn) [H1405, 1-(4-(((7-chloroisoindolin-5-yl)methyl)sulfonyl)phenyl)-3-(1-phenylethyl)urea], the pEC50 [1] was 7.05, the pEC50 [2] was under 4.52 and the pIC50 [3] was 5.73.
For CC(NC(=O)Nc1ccc(S(=O)(=O)Cc2ccc3c(c2)CNC3)cn1)c1ccccc1 (stereo not drawn) [H1408, 1-(5-((isoindolin-5-ylmethyl)sulfonyl)pyridin-2-yl)-3-(1-phenylethyl)urea], the pEC50 [1] was 7.44, the pEC50 [2] was under 4.52 and the pIC50 [3] was 6.79.
CC(c1ccccc1)N(C)C(=O)Nc1ccc(S(=O)(=O)Cc2ccc3c(c2F)CNC3)cc1 (stereo not drawn) [H1409, 3-(4-(((4-fluoroisoindolin-5-yl)methyl)sulfonyl)phenyl)-1-methyl-1-(1-phenylethyl)urea] was tested, and the pEC50 [1] was 7.13, the pEC50 [2] was under 4.52 and the pIC50 [3] was 6.55.
Compound CC(NC(=O)Nc1ccc(S(=O)(=O)Cc2ccc3c(c2)CNC3)cc1F)c1c(F)cccc1F (stereo not drawn) [H1411, 1-(1-(2,6-difluorophenyl)ethyl)-3-(2-fluoro-4-((isoindolin-5-ylmethyl)sulfonyl)phenyl)urea] has a pEC50 [1] of 7.75, a pEC50 [2] of under 4.52 and a pIC50 [3] of 6.91.
